Laboratory results as given in patent publication US20030054520A1, “Recombinant enzymes having improved NAD (H) affinity” (DEGUSSA AG, priority 2000, published 2003).

What follows are compounds tested on G38D mutein (assay: Substrate spectrum: photometric reduction of keto substrates with NADH). Conditions: relative to acetophenone; 10 mM keto substrate, 0.4 mM NADH, pH 7.0, 30° C.
Format: biochemical
Method: It is known that the NADP(H)-dependent wild-type enzyme can reduce numerous ketones, keto esters and other carbonyl-groupcontaining compounds stereospecifically. Hereinafter, only a few selected keto compounds are tested as substrates, in order to confirm that the substrate-recognition region has not been changed in principle by the change of coenzyme binding site. For this purpose the keto compounds are tested in the following mixture (total volume of 1 ml).
10 mM keto substrate; 1 MM MgCl2.6H2O; 0.4 mM NADH; 960 μl of triethanolamine buffer, 50 mM, pH 7.0; 10 μl of enzyme (G38D mutein); partly purified (phenylsepharose; see above).
The activity is determined photometrically at 340 nm (30° C.). The following table summarizes the activity values.

SMILES	Activity, relative [%]
CCOC(=O)C(=O)C(C)C [3-Methyl-2-oxobutyric acid ethyl ester]	84
COC(=O)CC(C)=O [Acetoacetic acid methyl ester]	188
CCOC(=O)C(C)=O [Pyruvic acid ethyl ester]	260
CC(=O)c1ccccc1 [Acetophenone]	100
CCCCC(C)=O [2-Hexanone]	169
CC1CCCCC1=O (stereo not drawn) [2-Methylcyclohexanone]	334
CCOC(=O)CC(C)=O [Acetoacetic acid ethyl ester]	88
CCOC(=O)CC(=O)CCl [4-Chloroacetoacetic acid ethyl ester]	228
COC(=O)C(C)=O [Pyruvic acid methyl ester]	191
CCOC(=O)C(=O)CCc1ccccc1 [Benzyl pyruvate ethyl ester]	13
CCC(=O)CC(=O)OC [3-Oxovaleric acid methyl ester]	127
CC(=O)c1ccc(Cl)cc1 [4-chloroacetophenone]	68
COC(=O)C(=O)c1ccccc1 [Phenylglyoxylic acid methyl ester]	10
CCCCCC(C)=O [2-Heptanone]	207
CCOC(=O)C(=O)CC [2-Oxobutyric acid ethyl ester]	137
